Reference: patent publication US10206877B2, “Pharmaceutical compositions for the treatment of cystic fibrosis transmembrane conductance regulator mediated diseases” (Vertex Pharmaceuticals Incorporated, priority 2014, dated 2019)
Values belong to the compound of their own block, whether it stands above or below them.

Experiments:
[1] = Compound 1 crystallization kinetics at elevated temperature and 75% relative humidity; assay type: physicochemical; conditions: for Crystallization / stability towards crystallization: 75% relative humidity; for Compound 1 crystallized: at about 25 hours; for stability towards crystallization: 80° C. and 70° C. (FIGS. 12, 13)
Protocol: FIG. 12 is a plot of crystallization kinetics data for Compound 1 at 80° C. and 75% relative humidity when in a Compound 2 free tablet (circles), a spray dried dispersion (squares), and a tablet comprising Compound 2 (triangles).
FIG. 13 is a plot of crystallization kinetics data for Compound 1 at 70° C. and 75% relative humidity when in a Compound 2 free tablet (circles), a spray dried dispersion (squares), and a tablet comprising Compound 2 (triangles).
FIGS. 12 and 13 depict the Compound 1 crystallization kinetics under 75% relative humidity and 80° C. and 70° C., respectively. Triangles represent a tablet formulation of a blend of the two separate spray dried dispersions of Compound 1 and Compound 2. Circles represent the same tablet formulation just lacking Compound 2. Squares represent the separate spray dried dispersion of Compound 1.
The phenomena of one therapeutic agent having improved properties in the presence of another therapeutic agent is not limited to the neat co-spray dried dispersions substantially free of polymer previously described. […] Table 2 lists the % crystallization of an 80% by weight SDD of Compound 1 over time at 80° C. at 75% relative humidity in the absence of Compound 2. Table 3 lists the % crystallization of Compound 1 in the presence of Compound 2 in a tablet of the present invention comprising a blend of Compound 1 SDD and Compound 2 SDD at […] at 75% relative humidity.

[2] = Kinetic dissolution / fluid stability in fed state simulated intestinal fluid (FedSIF); assay type: physicochemical
From the text: FIG. 9 is a bar graph of kinetic dissolution data for Compound 1 in fed state simulated intestinal fluid (FedSIF) solutions in the presence of Compound 2 in a neat coSDD substantially free of polymer and alone as measured by concentration versus time.
FIG. 10 is a bar graph of kinetic dissolution data for Compound 2 in FedSIF solutions in the presence of Compound 1 in a neat coSDD substantially free of polymer and alone as measured by concentration versus time.
The present invention features compositions where properties such as physical stability and dissolution rates are improved when one therapeutic agent is in the presence of another. […] FIG. 9 depicts fluid stability of Compound 1 in fed state simulated intestinal fluid (FedSIF). The set of bars labeled Neat 1:1 coSDD is the neat coSDD of Compound 1 and Compound 2 substantially free of polymer featured in the present invention. Along the y axis is concentration of Compound 1 in mg/ml and each bar along the x axis represents time: 0.5 h, 1 h, 3 h, 5 h, 29 h, and 72 h.
FIG. 10 depicts fluid stability of Compound 2 in compositions of the present invention in FedSIF. The set of bars labeled Neat 1:1 coSDD is the neat coSDD of Compound 1 and Compound 2 substantially free of polymer featured in the present invention.

[3] = Dog pK of tablets (Compound 2 exposure); assay type: in vivo
From the text: FIG. 11 depicts the results of dissolution rate experiments for a tablet comprising the neat co-spray dried dispersion of Compound 1 and Compound 2 (circles) and a tablet comprising a spray dried dispersion of Compound 2 alone and polymer (triangles). […] When Compound 2 is in the presence of Compound 1, the maximum concentration and area under the curve increases by 73% and 47%, respectively, relative to Compound 2 alone.

[4] = Dissolution rate experiments in fasted simulated fluids; assay type: physicochemical; conditions: tablet of neat co-spray dried dispersion of Compound 1 and Compound 2 vs tablet of SDD of Compound 2 alone and polymer; fasted simulated fluids (FIG. 11)
From the text: FIG. 11 is a plot of dissolution data for Compound 2 in fasted simulated fluids alone and in the presence of Compound 1 in a neat coSDD substantially free of polymer. […] FIG. 11 depicts the results of dissolution rate experiments for a tablet comprising the neat co-spray dried dispersion of Compound 1 and Compound 2 (circles) and a tablet comprising a spray dried dispersion of Compound 2 alone and polymer (triangles).

[5] = dog pK, ratio Neat coSDD tablet / Individual Tablets (Compound 2 alone)
[6] = dog, Compound 2 in the presence of Compound 1 relative to Compound 2 alone

Crystallization ([1]; 80% by weight SDD of Compound 1, absence of Compound 2, 80° C., 0 Hrs.): 0%
Crystallization ([1]; 80% by weight SDD of Compound 1, absence of Compound 2, 80° C., 5.2 Hrs.): 0%
Crystallization ([1]; 80% by weight SDD of Compound 1, absence of Compound 2, 80° C., 6 Hrs.): 0%
Crystallization ([1]; 80% by weight SDD of Compound 1, absence of Compound 2, 80° C., 9 Hrs.): 0.7%
Crystallization ([1]; 80% by weight SDD of Compound 1, absence of Compound 2, 80° C., 14.7 Hrs.): 5%
Crystallization ([1]; 80% by weight SDD of Compound 1, absence of Compound 2, 80° C., 25 Hrs.): 46.4%
Crystallization ([1]; 80% by weight SDD of Compound 1, absence of Compound 2, 80° C., 168 Hrs.): 88%
Compound 1 crystallized ([1]; in the absence of Compound 2): 46%
Crystallization ([1]; tablet comprising a blend of Compound 1 SDD and Compound 2 SDD, 80 CC, 0 Hrs.): 0%
Crystallization ([1]; tablet comprising a blend of Compound 1 SDD and Compound 2 SDD, 80 CC, 7 Hrs.): 3%
Crystallization ([1]; tablet comprising a blend of Compound 1 SDD and Compound 2 SDD, 80 CC, 14 Hrs.): 6%
Crystallization ([1]; tablet comprising a blend of Compound 1 SDD and Compound 2 SDD, 80 CC, 21 Hrs.): 8%
Crystallization ([1]; tablet comprising a blend of Compound 1 SDD and Compound 2 SDD, 80 CC, 26 Hrs.): 10%
stability towards crystallization ([1]; tablet formulation with Compound 2 vs separate spray dried dispersion of Compound 1): also more stable
Compound 1 crystallized ([1]; when Compound 2 was present): 10%
concentration stability of Compound 1 in FedSIF ([2]; 1:1 coSDD (20% HPMCAS) vs Compound 1 SDD (50% HPMCAS), over 72 h (FIG. 9)): concentration stability is greater
concentration stability of Compound 1 in FedSIF ([2]; 2:1 coSDD (20% HPMCAS) vs Compound 1 SDD (50% HPMCAS), over 72 h (FIG. 9)): more consistent
stability of Compound 1 concentration in FedSIF ([2]; Neat 1:1 coSDD (no polymer) vs Compound 1 SDD (50% HPMCAS), over 72 h (FIG. 9)): greater and more consistent stability
SMILES: CC(C)(CO)c1cc2cc(NC(=O)C3(c4ccc5c(c4)OC(F)(F)O5)CC3)c(F)cc2n1C[C@@H](O)CO [Compound 1, (R)-1-(2,2-difluorobenzo[d][1,3]dioxol-5-yl)-N-(1-(2,3-dihydroxypropyl)-6-fluoro-2-(1-hydroxy-2-methylpropan-2-yl)-1H-indol-5-yl)cyclopropanecarboxamide]
stability towards crystallization ([1]; tablet blend of the two separate SDDs vs Compound 2 free tablet): significantly more stable towards crystallization

AUC wt norm, Geometric Mean Ratio [3, 5]: 146.73
Cmax wt norm, Geometric Mean Ratio [3, 5]: 172.93
increase of area under the curve [3, 6]: 47%
increase of maximum concentration [3, 6]: 73%
concentration stability of Compound 2 in FedSIF ([2]; 1:1 coSDD (20% HPMCAS) vs Compound 2 SDD (20% HPMCAS), over 72 h (FIG. 10)): concentration stability is greater
concentration stability of Compound 2 in FedSIF ([2]; 2:1 coSDD (20% HPMCAS) vs Compound 2 SDD (20% HPMCAS), over 72 h (FIG. 10)): more consistent
stability of Compound 2 concentration in FedSIF ([2]; Neat 1:1 coSDD (no polymer) vs Compound 2 SDD (20% HPMCAS), over 72 h (FIG. 10)): increased stability
SMILES: CC(C)(C)c1cc(C(C)(C)C)c(NC(=O)c2c[nH]c3ccccc3c2=O)cc1O [Compound 2, N-[2,4-bis(1,1-dimethylethyl)-5-hydroxyphenyl]-1,4-dihydro-4-oxoquinoline-3-carboxamide]
exposure in vivo ([3]; dog, tablet of neat coSDD relative to tablet of Compound 2 alone): statistically significant increases in exposure
dissolution rate of Compound 2 [4]: significant increase in dissolution rates
